Values of other authors as cited in US6462083B1, “Suppository base” (priority 2001, dated 2002).

Tested on: blood flow to the site of administration
Conditions: laser Doppler imaging; no species, dose or data printed

SMILES: CCCCCCCC/C=C\CCCCCCCCCCCC(=O)O [Erucic acid, (Z)-13-Docosenoic acid]
- blood flow to the site of administration: enhance blood flow to the site of administration
